The text below walks through data of patent US12514865B2, “Biomaterial-based antigen free vaccine and the use thereof” (President and Fellows of Harvard College, priority 2019, dated 2026).

One data set concerns 4T1 cells. Kind of data set: In vitro immunogenic cell death assay. It counts as cell-based. The settings on record: 24 h.
The subject of another data set is 4T1 tumors. As to the kind of experiment: Tumor penetration study of Dox-iRGD. Format: in vivo, Balb/c mice. The conditions noted are these: released from peritumorally injected gels with GM-CSF, confocal imaging.
Data set [1] can be described thus: Release of Dox-iRGD or Dox from pore-forming alginate gels. It counts as physicochemical. The conditions noted are these: in vitro, DMEM 37 °C.
The nature of data set [2]: In vitro encapsulation and release of biomolecules from the cryogel vaccine. Format: physicochemical.
Description: To determine the incorporation efficiency and release kinetics of Cpg-odn, GM-CSF and antigen from cryogel vaccines, gels were incubated in lml of sterile PBS at 37° C. with shaking. Media was replaced periodically. Micro-BCA (Pierce Biotechnology) was used to quantify total protein content. GM-CSF and Cpg-odn released in the supernatant were detected by ELISA (Invitrogen) and OliGreen assay (Invitrogen), respectively. The amount of antigen was determined by subtracting total protein content from the amount of GM-CSF quantified by ELISA.

Description for 4T1 cells: 4T1 cells were incubated with different concentrations of Dox at 37° C. for 24 h. Cells without drug treatment were used as controls. Cells were washed with PBS for three times, collected, and stained with FITC-conjugated anti-CD47, Alex Fluor 647-conjugated anti-calreticulin, and fixable viability dye efluor780 for 20 min prior to FACS analyses.
Description for 4T1 tumors: 4T1 cells (0.6 million) in HBSS buffer were subcutaneously injected into the right flank of Balb/c mice. After 5 days, pore-forming alginate gels loaded with GM-CSF (3 μg)+Dox-iRGD (50 μg in Dox-equivalent) or GM-CSF+Dox-iRDG or GM-CSF+Dox were injected next to the tumors. After 48 h, gels and tumors were harvested and frozen with O.C.T. compound, and sectioned with a thickness of 8 μm. To determine the tumor penetration of drugs, tissue sections were stained with DAPI for 10 min and imaged under a confocal microscope.

Consider `COc1cccc2c1C(=O)c1c(O)c3c(c(O)c1C2=O)C[C@@](O)(C(=O)CO)C[C@@H]3O[C@H]1C[C@H](N)[C@H](O)[C@H](C)O1` [Dox, doxorubicin], for which the “expression of CD47” value with 4T1 cells is recorded as “increased expression of the anti-phagocytic marker CD47”. The cell-surface calreticulin result with 4T1 cells (0-100 nM) is given as “upregulated cell-surface calreticulin”. Also, the “tumor penetration / accumulation in tumor tissues” value with 4T1 tumors was “negligible accumulation”. Besides, in data set [1], the “released from pore-forming alginate gel within 6 h” value was around 30% and the “released from pore-forming alginate gel within 24 h” value is “more than 60%”.
With “GM-CSF: cytokine granulocyte-macrophage colony-stimulating factor (PeproTech)”, in data set [2] (from cryogel), the “released over the first 5 days in vitro” value was 85%. Moreover, the encapsulation efficiency in data set [2] (in MA-PEG/MA-alginate vaccine cryogel) is given as 87%. In data set [2] (in vitro, from cryogel), the “burst release of the loaded amount” value was “about 8%”.
